Consider 25 compounds from patent US4988681A, “Phosphinic acid derivatives” (Banyu Pharmaceutical Co., Ltd., priority 1988, dated 1991).

Data set [1] addresses T1, porcine kidney dehydropeptidase I (Sus scrofa, UniProt P22412).
T1 construct: Frozen porcine kidney cortex was homogenized; from tissue; host or cells: porcine kidney cortex
T1 sequence (P22412 17-409): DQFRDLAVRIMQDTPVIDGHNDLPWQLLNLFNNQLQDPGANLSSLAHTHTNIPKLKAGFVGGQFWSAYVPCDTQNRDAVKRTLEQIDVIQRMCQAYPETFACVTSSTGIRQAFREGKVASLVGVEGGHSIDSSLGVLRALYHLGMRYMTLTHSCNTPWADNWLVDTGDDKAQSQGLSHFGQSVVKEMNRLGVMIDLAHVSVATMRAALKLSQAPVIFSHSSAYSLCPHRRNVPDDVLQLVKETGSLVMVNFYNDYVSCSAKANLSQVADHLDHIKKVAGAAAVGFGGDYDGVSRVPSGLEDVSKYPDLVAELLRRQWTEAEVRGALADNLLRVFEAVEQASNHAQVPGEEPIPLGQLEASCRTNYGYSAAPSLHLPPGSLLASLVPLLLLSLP
Kind of data set: Inhibitory activity on porcine kidney dehydropeptidase I (DHP-I). Format: biochemical. As for the experimental part:
(1) Inhibitory activity on porcine kidney dehydropeptidase I
(i) Purification of porcine dehydropeptidase I
Frozen porcine kidney cortex was homogenized. Butanol (1/4 volume) pre-cooled in a dry ice-acetone bath was added to the homogenate, and the mixture was stirred at 4° C. for 43 hours. The mixture was then dialyzed for one day and centrifuged at 3,000 g for 30 minutes. To the resulting supernatant was added ammonium sulfate. A precipitate at the salt concentration range between 50 and 75% was collected to give a crude enzyme preparation which was re-dissolved in a 50 mM MOPS buffer containing 0.5 M NaCl. The solution was charged on a cilastatin affinity column. Elution with a 50 mM MOPS buffer containing 0.5 M NaCN gave a purified enzyme preparation.
(ii) Measurement of inhibitory activity
The resulting enzyme preparation (3 mU) and an inhibitor were pre-incubatedat 37° C. for 3 hours in 2.7 ml of a 50 mM MOPS buffer (pH 7.4), and then 2.475 ml of the mixture was transferred into a cuvette. As a substrate, 25 microliters of a 5 mM glycyldehydrophenylalanine solution in a 50 mM MOPS buffer (pH 7.4) was added to start an enzymic reaction. The reaction was carried out at 37° C. in a spectrophotometer fitted with a constant-emperature device, and a decrease of the absorbance at 275 nm during a period of 5 minutes was measured. […] An IC50 value was calculated from the percent inhibition data.
One unit (U) is defined as the amount of the enzyme which hydrolyzes 1 micromole of the substrate (glycyldehydrophenylalanine) per minute at a substrate concentration of 0.05 mM at 37° C. in a 50 mM MOPS buffer (pH 7.4).

Data set [2] is described as follows: Pharmacokinetic evaluation: plasma concentration in rats. It is filed as in vivo, Male SD rats. The settings on record: for AUC: trapezoidal rule; for concentration at 0.5 h: 1/2 h; for concentration at 0.25 h: 1/4 h; for concentration at 5 min: 1/12 h. As for the experimental part: (4) Pharmacokinetic evaluations
Male SD rats ([…]) were divided into groups each consisting of three animals. […] Furthermore, cilastatin was intravenously administered to a 14th group as a control group.
Plasma samples were taken periodically from the carotid artery through a cannula inserted into it at the points of 1/12, 1/4, 1/2, 1, 2, 4, 6, 8 and 24 hours after the administration.
The area under the curve (AUC) of the plasma concentration was determined according to the trapezoidal rule.

The mark [3] stands for this setting: substrate glycyldehydrophenylalanine, pH 7.4, 37° C., 3 h pre-incubation, read-out: Concentration producing 50% inhibition (IC50).
[4] abbreviates: rat, plasma, ester po, 10 mg/kg equivalent to compound No. 2, calculated as free acid (No. 2).
[5] abbreviates: rat, plasma, iv 10 mg/kg (cilastatin dose not given).

Where two headings read alike, the source gives them in different places.

With `COC(=O)CSCCCCC/C=C(\CP(=O)(O)CC(C)C)C(=O)O` [compound 21, (Z)-2-(hydroxyisobutylphosphinoyl)methyl-8-methoxycarbonylmethylthio-2-octenoic acid], in data set [1] (setting [3]), the IC50 came to 31 nM.

Consider `CC(C)CP(=O)(O)C/C(=C\c1ccccc1)C(=O)O` [compound 29, (Z)-2-(hydroxyisobutylphosphinoyl)methyl-3-phenylpropenoic acid], for which the IC50 in data set [1] (setting [3]) was 60 nM.

As a reminder, the AUC is the area under the concentration-time curve, a measure of exposure. For the compound `Cc1oc(=O)oc1COC(=O)/C(=C/C1CCCCC1)CP(=O)(O)CC(C)C` [Compound No. 27, (5-methyl-2-oxo-1,3-dioxol-4-yl)methyl (Z)-3-cyclohexyl-2-(hydroxyisobutylphosphinoyl)methylpropenoate], the IC50 in data set [1] (setting [3]) worked out at 150000 nM. For the same compound, the AUC in data set [2] (plasma, rat, ester po, 10 mg/kg equivalent to compound No. 2, calculated as free acid (No. 2)) is 56900 ng·h/mL. In data set [2] (setting [4]), the concentration at 0.5 h is 13300 ng/mL, the concentration at 0.25 h was 10100 ng/mL, the concentration at 5 min was 1500 ng/mL and the concentration at 1 h was 11500 ng/mL. Also, in data set [2] (setting [4]), the concentration at 2 h is 9300 ng/mL and the concentration at 4 h was 4600 ng/mL. For the same compound, the concentration at 6 h in data set [2] (rat, plasma, ester po, 10 mg/kg equivalent to compound No. 2, calculated as free acid (No. 2), 6 h) was 2600 ng/mL. Further, the concentration at 8 h in data set [2] (rat, plasma, ester po, 10 mg/kg equivalent to compound No. 2, calculated as free acid (No. 2), 8 h) is 1400 ng/mL. Also, the Oral absorbability result in data set [2] (rats, in words) is given as “better oral absorbability than the compound No. 2”.

Take `CC(C)CP(=O)(O)C/C(=C\CCCC(=O)O)C(=O)O` [Compound No. 14, (Z)-2-(hydroxyisobutylphosphinoyl)methyl-2-heptenedioic acid]: the IC50 in data set [1] (setting [3]) amounted to 11 nM. Besides, in data set [2] (plasma, rat, iv 10 mg/kg (cilastatin dose not given)), the AUC was 9300 ng·h/mL. In data set [2] (setting [5]), this compound gave a concentration at 0.5 h of 4600 ng/mL, a concentration at 0.25 h of 11300 ng/mL and a concentration at 5 min of 28000 ng/mL. The same compound yielded a concentration at 1 h in data set [2] (rat, plasma, iv 10 mg/kg (cilastatin dose not given), N.D.: below the detection limit) of 1400 ng/mL. Also, in data set [2] (rat, plasma, iv 10 mg/kg), the concentration at 2 h is 300 ng/mL and the concentration at 4 h was 100 ng/mL.

As for `CC(C)CP(=O)(O)C/C(=C\CCCCCCl)C(=O)O` [compound 13, (Z)-8-chloro-2-(hydroxyisobutylphosphinoyl)methyl-2-octenoic acid], in data set [1] (setting [3]), the IC50 came out at 44 nM.

In the case of `CC(C)/C=C(\CP(=O)(O)CC(C)C)C(=O)O` [compound 8, (Z)-2-(hydroxyisobutylphosphinoyl)methyl-4-methyl-2-pentenoic acid], the IC50 in data set [1] (setting [3]) turned out to be 16 nM.

As to `CCCCP(=O)(O)CC(CC1CCCCC1)C(=O)O` (stereo not drawn) [compound 26, 2-(butylhydroxyphosphinoyl)methyl-3-cyclohexylpropionic acid], in data set [1] (setting [3]), the IC50 came to 28 nM.

In the case of `CC(C)CP(=O)(O)C/C(=C\CCCSc1nccn1C)C(=O)O` [compound 24, (Z)-2-(hydroxyisobutylphosphinoyl)methyl-6-(1-methylimidazol-2-yl)thio-2-hexenoic acid], the IC50 in data set [1] (setting [3]) came to 48 nM.

`CCCCC/C=C(\CP(=O)(O)CC(C)C)C(=O)O` [compound 6, (Z)-2-(hydroxyisobutylphosphinoyl)methyl-2-octenoic acid]: the IC50 in data set [1] (setting [3]) was 46 nM.

`CC(C)CP(=O)(O)C/C(=C\CCCCCSc1ncccc1O)C(=O)O` [compound 25, (Z)-8-(3-hydroxy-2-pyridyl)thio-2-(hydroxyisobutylphosphinoyl)methyl-2-octenoic acid]: in data set [1] (setting [3]), the IC50 was 19 nM.

As to `CCCCCCCCCCP(=O)(O)C/C(=C\C1CCCCC1)C(=O)O` [compound 4, (Z)-3-cyclohexyl-2-(decylhydroxyphosphinoyl)methylpropenoic acid], the IC50 in data set [1] (setting [3]) was 68 nM.

For the compound `CC(C)CP(=O)(O)C/C(=C\CCCSCCO)C(=O)O` [compound 31, (Z)-6-(2-hydroxyethyl)thio-2-(hydroxyisobutylphosphinoyl)methyl-2-hexenoic acid], the IC50 in data set [1] (setting [3]) came to 64 nM.

As for `CC(C)CP(=O)(O)C/C(=C\CCCCCSCC(=O)O)C(=O)O` [compound 20, (Z)-8-carboxymethylthio-2-(hydroxyisobutylphosphinoyl)methyl-2-octenoic acid], the IC50 in data set [1] (setting [3]) came out at 22 nM.

Consider `CCCCP(=O)(O)C/C(=C\C1CCCCC1)C(=O)O` [Compound No. 1, (Z)-2-(butylhydroxyphosphinoyl)methyl-3-cyclohexylpropenoic acid], for which the IC50 in data set [1] (setting [3]) amounted to 38 nM.

On to `CC(C)CP(=O)(O)C/C(=C\CCCSc1c[nH]nn1)C(=O)O` [compound 19, (Z)-2-(hydroxyisobutylphosphinoyl)methyl-6-(1,2,3-triazol-4-yl)thio-2-hexenoic acid], for which the IC50 in data set [1] (setting [3]) stood at 25 nM.

For the compound `CC(C)CP(=O)(O)C/C(=C\CCc1ccccc1)C(=O)O` [compound 11, (Z)-2-(hydroxyisobutylphosphinoyl)methyl-5-phenyl-2-pentenoic acid], the IC50 in data set [1] (setting [3]) turned out to be 57 nM.

For `CC1(C)CC1P(=O)(O)C/C(=C\C1CC1)C(=O)O` (stereo not drawn) [compound 15, (Z)-3-cyclopropyl-2-(2,2-dimethylcyclopropylhydroxyphosphinoyl)methylpropenoic acid], in data set [1] (setting [3]), the IC50 was 6.3 nM.

For `CC(C)CP(=O)(O)C/C(=C\CCCCl)C(=O)O` [compound 12, (Z)-6-chloro-2-(hydroxyisobutylphosphinoyl)methyl-2-hexenoic acid], the IC50 in data set [1] (setting [3]) was found to be 51 nM.

On to `CC(C)CP(=O)(O)C/C(=C\CCCSc1ccccc1)C(=O)O` [compound 18, (Z)-2-(hydroxyisobutylphosphinoyl)methyl-6-phenylthio-2-hexenoic acid], for which the IC50 in data set [1] (setting [3]) was 21 nM.

`CC(C)P(=O)(O)C/C(=C\C1CCCCC1)C(=O)O` [compound 3, (Z)-3-cyclohexyl-2-(hydroxyisopropylphosphinoyl)methylpropenoic acid]: the IC50 in data set [1] (setting [3]) amounted to 42 nM.

In the case of `O=C(O)/C(=C/C1CC1)CP(=O)(O)CC1CCCCC1` [compound 16, (Z)-2-(cyclohexylmethylhydroxyphosphinoyl)methyl-3-cyclopropylpropenoic acid], the IC50 in data set [1] (setting [3]) turned out to be 41 nM.

Regarding `CC(C)CP(=O)(O)C/C(=C\CCCSc1ncccc1O)C(=O)O` [compound 22, (Z)-6-(3-hydroxy-2-pyridyl)thio-2-(hydroxyisobutylphosphinoyl)methyl-2-hexenoic acid], the IC50 in data set [1] (setting [3]) was determined as 23 nM.

`CCCCCCCCC/C=C(\CP(=O)(O)CC(C)C)C(=O)O` [compound 7, (Z)-2-(hydroxyisobutylphosphinoyl)methyl-2-dodecenoic acid]: in data set [1] (setting [3]), the IC50 was determined as 27 nM.

For `C/C=C(\CP(=O)(O)CC(C)C)C(=O)O` [compound 30, (Z)-2-(hydroxyisobutylphosphinoyl)methyl-2-butenoic acid], the IC50 in data set [1] is 75 nM.

For `CC(C)C/C=C(\CP(=O)(O)CC(C)C)C(=O)O` [compound 9, (Z)-2-(hydroxyisobutylphosphinoyl)methyl-5-methyl-2-hexenoic acid], in data set [1] (setting [3]), the IC50 was 15 nM.
